According to patent US12454534B2, “Pyrrolo[2,3-b]pyrazines as HPK1 inhibitor and the use thereof” (BEIGENE, LTD., priority 2019, dated 2025):

How the values were obtained:
[1] = molecular target: T1, HPK1 kinase (aa1-346, Life Technologies) (Homo sapiens, UniProt Q92918); assay: HPK1 Kinase Activity Assay at 1 mM ATP (TR-FRET); format: biochemical; conditions: HPK1 40 nM, read-out: Enzymatic activity IC50
T1 construct: HPK1 kinase (aa1-346, Life Technologies); purchased Life Technologies
T1 sequence (Q92918 1-346): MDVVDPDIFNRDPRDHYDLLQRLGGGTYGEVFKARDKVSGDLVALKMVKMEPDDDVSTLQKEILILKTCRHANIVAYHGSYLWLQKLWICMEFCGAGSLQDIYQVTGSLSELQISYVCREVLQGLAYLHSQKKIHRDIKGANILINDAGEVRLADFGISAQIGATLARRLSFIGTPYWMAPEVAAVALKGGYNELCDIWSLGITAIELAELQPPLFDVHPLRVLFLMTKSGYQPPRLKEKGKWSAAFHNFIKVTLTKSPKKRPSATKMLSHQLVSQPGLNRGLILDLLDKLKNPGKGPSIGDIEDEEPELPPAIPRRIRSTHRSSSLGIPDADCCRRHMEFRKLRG
How it was run: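 HPK1 (aa1-346, 40 nM) pre-incubated 60 min at room temperature with compound (0-10 μM), then reacted 120 min with 1 mM ATP and 0.5 μM STK1 substrate in HEPES pH 7.0 with MgCl2. Phosphorylation read by TR-FRET (665/620 nm); IC50 from four-parameter logistic fit.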

HEK293 cells = assay: HEK293 cell viability assay (CellTiter-Glo); format: cell-based; conditions: Homo sapiens, HEK293, 72 h, 3-day exposure, 0 to 10 μM
Experimental: Cytotoxicity on HEK293 Cells Proliferation (HEK293 Cell Viability Assay)
HEK293 cell line were used in this study. Cell lines were maintained in DMEM (Dulbecco's Modified Eagle Medium) supplemented with 10% fetal bovine serum (Thermo Fisher), 50 units/mL penicillin and streptomycin (Thermo Fisher) and kept at 37° C. in a humidified atmosphere containing 5% CO2 in air. Cell lines were reinstated from frozen stocks that were laid down within 50 passages from the original cells purchased. The growth-inhibitory activity of compounds in HEK293 cells was determined using CellTiter-Glo luminescent cell viability assay (Promega). 3000 cells per well were seeded into a 96-well plate to ensure logarithmic growth for 3 days treatment period. Cells were treated with a 10-point dilution series. The final compound concentration was from 0 to 10 μM. Following a 3-day exposure to the test compounds, 30 μL of CellTiter-Glo reagent was added into 100 μL cell culture medium per well. Mixture was mixed on an orbital shaker for 2 minutes to allow cell lysis, followed by 10 minutes of incubation at room temperature to allow development and stabilization of luminescent signal, which corresponded to the quantity of ATP and thus the quantity of metabolically active cells. Luminescent signal was measured using PHERAstar FS reader (BMG Labtech). IC50 values for cell viability were determined with Dotmatics.

IC50 [1]: 86 nM
Structure (SMILES): CCN1CCc2c(C)cc(-c3cnc4[nH]cc(-c5ccc(C(=O)N(C)C)c(C)c5)c4n3)cc2C1 [Example 127, 4-(2-(2-ethyl-5-methyl-1,2,3,4-tetrahydroisoquinolin-7-yl)-5H-pyrrolo[2,3-b]pyrazin-7-yl)-N, N, 2-trimethylbenzamide]
IC50 (HEK293 cells): 3130 nM
